Experimental data from PubChem BioAssay AID624355 (The Scripps Research Institute Molecular Screening Center, 2012).
The source made the active and inactive calls.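 The calls were made as follows: active = inhibition of at least 50% in a panel; inactive = the rest.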

Key:
Assay in all cases: GPCR and transporter radioligand displacement panel – cell-based, radioligand binding, single concentration, selectivity assay for STAT3/NF-kB dual inhibitor project, profiling panel (AID 624355)
[1] = molecular target: 5-hydroxytryptamine receptor 1A (Homo sapiens) (UniProt P08908); conditions: Ricerca radioligand binding panel, receptors/transporters; Serotonin (5-Hydroxytryptamine) 5-HT1A; at 10 µM; active compounds read high
5-hydroxytryptamine receptor 1A (Homo sapiens), sequence (P08908 whole entry, looked up): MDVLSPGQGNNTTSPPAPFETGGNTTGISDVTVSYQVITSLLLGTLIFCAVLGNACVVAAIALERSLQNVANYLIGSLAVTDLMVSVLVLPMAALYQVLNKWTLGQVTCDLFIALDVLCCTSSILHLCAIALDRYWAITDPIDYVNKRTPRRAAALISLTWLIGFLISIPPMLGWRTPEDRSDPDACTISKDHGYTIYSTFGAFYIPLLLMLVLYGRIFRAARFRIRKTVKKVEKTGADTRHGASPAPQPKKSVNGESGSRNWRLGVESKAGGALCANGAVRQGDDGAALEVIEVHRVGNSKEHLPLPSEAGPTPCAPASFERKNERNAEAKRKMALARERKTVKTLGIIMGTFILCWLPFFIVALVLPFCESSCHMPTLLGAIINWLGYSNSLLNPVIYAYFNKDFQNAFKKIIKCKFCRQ

[2] = molecular target: 5-hydroxytryptamine receptor 2B (Homo sapiens) (UniProt P41595); conditions: Ricerca radioligand binding panel, receptors/transporters; Serotonin (5-Hydroxytryptamine) 5-HT2B; at 10 µM; active compounds read high
5-hydroxytryptamine receptor 2B (Homo sapiens), sequence (P41595 whole entry, looked up): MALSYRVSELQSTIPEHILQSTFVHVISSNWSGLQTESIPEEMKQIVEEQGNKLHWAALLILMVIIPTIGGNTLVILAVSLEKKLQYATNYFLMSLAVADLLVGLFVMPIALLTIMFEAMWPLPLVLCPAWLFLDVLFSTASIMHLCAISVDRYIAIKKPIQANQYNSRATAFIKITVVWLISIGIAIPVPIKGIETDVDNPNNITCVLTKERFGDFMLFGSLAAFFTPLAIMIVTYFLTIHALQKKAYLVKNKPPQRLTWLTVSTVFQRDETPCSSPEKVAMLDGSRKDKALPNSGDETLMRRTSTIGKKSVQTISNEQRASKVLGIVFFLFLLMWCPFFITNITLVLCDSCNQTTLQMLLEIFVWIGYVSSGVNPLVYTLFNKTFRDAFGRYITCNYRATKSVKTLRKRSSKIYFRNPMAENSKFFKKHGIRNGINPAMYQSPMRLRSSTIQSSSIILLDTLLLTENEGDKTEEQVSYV

[3] = test system: Adenosine A1; conditions: Ricerca radioligand binding panel, receptors/transporters, at 10 µM, active compounds read high
[4] = test system: Adenosine A2A; conditions: Ricerca radioligand binding panel, receptors/transporters, at 10 µM, active compounds read high
[5] = test system: Adenosine A3; conditions: Ricerca radioligand binding panel, receptors/transporters, at 10 µM, active compounds read high
[6] = test system: Adrenergic B1; conditions: Ricerca radioligand binding panel, receptors/transporters, at 10 µM, active compounds read high
[7] = test system: Adrenergic a1A; conditions: Ricerca radioligand binding panel, receptors/transporters, at 10 µM, active compounds read high
[8] = test system: Adrenergic a1B; conditions: Ricerca radioligand binding panel, receptors/transporters, at 10 µM, active compounds read high
[9] = test system: Adrenergic a1D; conditions: Ricerca radioligand binding panel, receptors/transporters, at 10 µM, active compounds read high
[10] = molecular target: Alpha-2A adrenergic receptor (Homo sapiens) (UniProt P08913); conditions: Ricerca radioligand binding panel, receptors/transporters; Adrenergic a2A; at 10 µM; active compounds read high
Alpha-2A adrenergic receptor (Homo sapiens), sequence (P08913 whole entry, looked up): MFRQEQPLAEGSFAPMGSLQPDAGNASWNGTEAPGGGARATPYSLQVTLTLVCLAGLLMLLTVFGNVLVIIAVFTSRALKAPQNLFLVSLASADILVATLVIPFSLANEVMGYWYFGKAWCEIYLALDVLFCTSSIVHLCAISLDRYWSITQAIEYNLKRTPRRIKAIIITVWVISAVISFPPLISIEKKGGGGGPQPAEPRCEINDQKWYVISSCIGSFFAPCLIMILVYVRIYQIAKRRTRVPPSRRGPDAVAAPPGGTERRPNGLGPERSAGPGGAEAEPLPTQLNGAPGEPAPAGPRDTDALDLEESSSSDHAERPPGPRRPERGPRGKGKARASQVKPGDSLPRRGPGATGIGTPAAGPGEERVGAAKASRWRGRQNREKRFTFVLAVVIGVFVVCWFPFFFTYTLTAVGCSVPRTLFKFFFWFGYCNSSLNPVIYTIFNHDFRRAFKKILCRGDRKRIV

[11] = test system: Androgen (Testosterone) AR; conditions: Ricerca radioligand binding panel, receptors/transporters, at 10 µM, active compounds read high
[12] = molecular target: Beta-2 adrenergic receptor (Homo sapiens) (UniProt P07550); conditions: Ricerca radioligand binding panel, receptors/transporters; Adrenergic B2; at 10 µM; active compounds read high
Beta-2 adrenergic receptor (Homo sapiens), sequence (P07550 whole entry, looked up): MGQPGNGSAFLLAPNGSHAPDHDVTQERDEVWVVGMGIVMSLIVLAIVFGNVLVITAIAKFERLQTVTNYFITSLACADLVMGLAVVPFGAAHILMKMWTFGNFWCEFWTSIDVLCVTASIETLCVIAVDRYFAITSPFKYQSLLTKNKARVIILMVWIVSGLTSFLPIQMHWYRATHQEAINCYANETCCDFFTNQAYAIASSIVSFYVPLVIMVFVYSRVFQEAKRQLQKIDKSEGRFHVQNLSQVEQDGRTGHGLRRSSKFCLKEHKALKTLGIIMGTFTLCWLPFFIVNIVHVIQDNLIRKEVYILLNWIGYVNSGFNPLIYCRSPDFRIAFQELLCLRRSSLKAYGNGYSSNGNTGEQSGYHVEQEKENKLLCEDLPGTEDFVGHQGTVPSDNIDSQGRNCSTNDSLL

[13] = test system: Bradykinin B1; conditions: Ricerca radioligand binding panel, receptors/transporters, at 10 µM, active compounds read high
[14] = test system: Bradykinin B2; conditions: Ricerca radioligand binding panel, receptors/transporters, at 10 µM, active compounds read high
[15] = test system: Calcium Channel L-Type, Benzothiazepine; conditions: Ricerca radioligand binding panel, receptors/transporters, Benzothiazepine site, at 10 µM, active compounds read high
[16] = test system: Calcium Channel L-Type, Dihydropyridine; conditions: Ricerca radioligand binding panel, receptors/transporters, Dihydropyridine site, at 10 µM, active compounds read high
[17] = test system: Calcium Channel N-Type; conditions: Ricerca radioligand binding panel, receptors/transporters, at 10 µM, active compounds read high
[18] = test system: Cannabinoid CB1; conditions: Ricerca radioligand binding panel, receptors/transporters, at 10 µM, active compounds read high
[19] = molecular target: D(1A) dopamine receptor (Homo sapiens) (UniProt P21728); conditions: Ricerca radioligand binding panel, receptors/transporters; Dopamine D1; at 10 µM; active compounds read high
D(1A) dopamine receptor (Homo sapiens), sequence (P21728 whole entry, looked up): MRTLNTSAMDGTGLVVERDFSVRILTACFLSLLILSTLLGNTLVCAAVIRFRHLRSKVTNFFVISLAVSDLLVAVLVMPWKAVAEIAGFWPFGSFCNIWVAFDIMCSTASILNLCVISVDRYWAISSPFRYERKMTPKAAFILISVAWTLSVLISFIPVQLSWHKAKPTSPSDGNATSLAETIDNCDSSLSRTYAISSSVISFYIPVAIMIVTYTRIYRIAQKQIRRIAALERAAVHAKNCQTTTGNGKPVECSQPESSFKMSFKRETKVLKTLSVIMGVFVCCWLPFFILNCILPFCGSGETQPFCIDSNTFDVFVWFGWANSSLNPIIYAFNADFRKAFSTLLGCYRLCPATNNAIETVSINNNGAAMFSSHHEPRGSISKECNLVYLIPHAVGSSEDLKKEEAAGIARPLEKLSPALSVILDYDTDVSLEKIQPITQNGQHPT

[20] = molecular target: D(3) dopamine receptor (Homo sapiens) (UniProt P35462); conditions: Ricerca radioligand binding panel, receptors/transporters; Dopamine D3; at 10 µM; active compounds read high
D(3) dopamine receptor (Homo sapiens), sequence (P35462 whole entry, looked up): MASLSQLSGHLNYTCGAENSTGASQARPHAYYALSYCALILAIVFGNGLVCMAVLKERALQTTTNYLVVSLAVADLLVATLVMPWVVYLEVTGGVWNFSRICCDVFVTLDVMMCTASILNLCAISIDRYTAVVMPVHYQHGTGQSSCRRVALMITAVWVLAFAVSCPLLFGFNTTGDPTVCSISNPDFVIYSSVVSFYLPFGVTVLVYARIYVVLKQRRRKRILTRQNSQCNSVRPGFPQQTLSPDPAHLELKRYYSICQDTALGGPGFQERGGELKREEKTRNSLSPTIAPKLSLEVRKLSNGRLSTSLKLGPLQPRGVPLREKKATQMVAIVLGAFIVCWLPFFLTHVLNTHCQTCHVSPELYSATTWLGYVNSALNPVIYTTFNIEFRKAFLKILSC

[21] = molecular target: Delta-type opioid receptor (Homo sapiens) (UniProt P41143); conditions: Ricerca radioligand binding panel, receptors/transporters; Opiate (OP1, DOP); at 10 µM; active compounds read high
Delta-type opioid receptor (Homo sapiens), sequence (P41143 whole entry, looked up): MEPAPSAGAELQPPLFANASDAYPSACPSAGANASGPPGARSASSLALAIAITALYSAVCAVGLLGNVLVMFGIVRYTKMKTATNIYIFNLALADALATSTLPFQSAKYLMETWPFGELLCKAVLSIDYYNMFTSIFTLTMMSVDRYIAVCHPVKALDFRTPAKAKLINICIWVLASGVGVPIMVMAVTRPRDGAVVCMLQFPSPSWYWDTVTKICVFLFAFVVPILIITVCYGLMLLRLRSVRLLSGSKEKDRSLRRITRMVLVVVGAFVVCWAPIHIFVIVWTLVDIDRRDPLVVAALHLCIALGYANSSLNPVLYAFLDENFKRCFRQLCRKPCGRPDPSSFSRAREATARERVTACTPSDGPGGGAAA

[22] = test system: Dopamine D2S; conditions: Ricerca radioligand binding panel, receptors/transporters, at 10 µM, active compounds read high
[23] = test system: Dopamine D4.2; conditions: Ricerca radioligand binding panel, receptors/transporters, at 10 µM, active compounds read high
[24] = test system: Endothelin ETA; conditions: Ricerca radioligand binding panel, receptors/transporters, at 10 µM, active compounds read high
[25] = test system: Endothelin ETB; conditions: Ricerca radioligand binding panel, receptors/transporters, at 10 µM, active compounds read high
[26] = test system: Epidermal Growth Factor (EGF); conditions: Ricerca radioligand binding panel, receptors/transporters, at 10 µM, active compounds read high
[27] = molecular target: Estrogen receptor (Homo sapiens) (UniProt P03372); conditions: Ricerca radioligand binding panel, receptors/transporters; Estrogen Era; at 10 µM; active compounds read high
Estrogen receptor (Homo sapiens), sequence (P03372 whole entry, looked up): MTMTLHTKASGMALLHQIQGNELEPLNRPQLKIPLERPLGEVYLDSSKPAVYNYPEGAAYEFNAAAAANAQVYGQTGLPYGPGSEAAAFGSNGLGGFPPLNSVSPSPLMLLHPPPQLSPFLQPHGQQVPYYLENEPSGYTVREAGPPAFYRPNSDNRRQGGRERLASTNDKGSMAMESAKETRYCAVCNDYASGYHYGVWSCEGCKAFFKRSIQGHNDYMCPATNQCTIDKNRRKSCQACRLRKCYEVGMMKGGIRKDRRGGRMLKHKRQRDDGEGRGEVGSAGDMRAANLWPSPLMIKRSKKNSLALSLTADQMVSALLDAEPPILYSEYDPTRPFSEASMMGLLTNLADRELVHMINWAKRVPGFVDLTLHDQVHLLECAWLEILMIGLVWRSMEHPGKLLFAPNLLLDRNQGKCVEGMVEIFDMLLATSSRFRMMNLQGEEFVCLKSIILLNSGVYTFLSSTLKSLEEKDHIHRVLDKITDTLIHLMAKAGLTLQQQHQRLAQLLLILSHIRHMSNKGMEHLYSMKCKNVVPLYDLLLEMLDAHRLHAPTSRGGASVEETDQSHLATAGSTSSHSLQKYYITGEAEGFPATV

[28] = test system: GABAA, Flunitrazepam, Central; conditions: Ricerca radioligand binding panel, receptors/transporters, Flunitrazepam site, at 10 µM, active compounds read high
[29] = test system: GABAA, Muscimol, Central; conditions: Ricerca radioligand binding panel, receptors/transporters, Muscimol site, at 10 µM, active compounds read high
[30] = test system: GABAB1A; conditions: Ricerca radioligand binding panel, receptors/transporters, at 10 µM, active compounds read high
[31] = molecular target: Glucocorticoid receptor (Homo sapiens) (UniProt P04150); conditions: Ricerca radioligand binding panel, receptors/transporters, at 10 µM, active compounds read high
Glucocorticoid receptor (Homo sapiens), sequence (P04150 whole entry, looked up): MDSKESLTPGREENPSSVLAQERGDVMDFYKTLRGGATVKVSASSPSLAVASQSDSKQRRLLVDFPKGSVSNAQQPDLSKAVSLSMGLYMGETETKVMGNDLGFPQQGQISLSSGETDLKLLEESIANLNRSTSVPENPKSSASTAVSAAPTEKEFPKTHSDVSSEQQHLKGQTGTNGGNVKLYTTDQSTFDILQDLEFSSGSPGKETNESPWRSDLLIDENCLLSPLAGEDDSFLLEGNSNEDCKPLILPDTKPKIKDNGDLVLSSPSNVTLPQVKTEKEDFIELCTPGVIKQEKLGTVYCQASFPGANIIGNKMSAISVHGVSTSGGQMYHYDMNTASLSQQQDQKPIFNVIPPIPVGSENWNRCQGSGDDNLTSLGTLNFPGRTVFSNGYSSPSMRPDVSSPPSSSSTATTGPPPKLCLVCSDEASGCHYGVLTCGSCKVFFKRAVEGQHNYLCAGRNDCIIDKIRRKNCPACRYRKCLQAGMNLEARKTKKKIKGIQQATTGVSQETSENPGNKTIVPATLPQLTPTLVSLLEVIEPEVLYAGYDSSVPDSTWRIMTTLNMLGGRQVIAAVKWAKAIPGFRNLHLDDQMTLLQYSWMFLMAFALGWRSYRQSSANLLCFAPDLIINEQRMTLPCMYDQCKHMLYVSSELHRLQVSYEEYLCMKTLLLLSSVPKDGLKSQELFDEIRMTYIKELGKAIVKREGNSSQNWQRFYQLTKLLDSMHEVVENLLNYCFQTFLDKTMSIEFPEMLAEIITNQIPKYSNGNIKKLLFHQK

[32] = test system: Glutamate, Kainate; conditions: Ricerca radioligand binding panel, receptors/transporters, at 10 µM, active compounds read high
[33] = test system: Glutamate, NMDA, Agonism; conditions: Ricerca radioligand binding panel, receptors/transporters, Agonism site, at 10 µM, active compounds read high

What does the source list for COc1ccc(CC2CCN(c3ncnc4sccc34)CC2)cc1?
inhibition [1]: 1% (inactive); inhibition [2]: 47% (inactive); inhibition [3]: 52%; inhibition [4]: 31% (inactive); inhibition [5]: 23% (inactive); inhibition [6]: 23% (inactive); inhibition [7]: 28% (inactive); inhibition [8]: 6% (inactive); inhibition [9]: 19% (inactive); inhibition [10]: 56%; inhibition [11]: 11% (inactive); inhibition [12]: 10% (inactive); inhibition [13]: 4% (inactive); inhibition [14]: 8% (inactive); inhibition [15]: 8% (inactive); inhibition [16]: 47% (inactive); inhibition [17]: -2% (inactive); inhibition [18]: 28% (inactive); inhibition [19]: 7% (inactive); inhibition [20]: 51%; inhibition [21]: 27% (inactive); inhibition [22]: 11% (inactive); inhibition [23]: 4% (inactive); inhibition [24]: 21% (inactive); inhibition [25]: 6% (inactive); inhibition [26]: 2% (inactive); inhibition [27]: 1% (inactive); inhibition [28]: -6% (inactive); inhibition [29]: 58%; inhibition [30]: 10% (inactive); inhibition [31]: 15% (inactive); inhibition [32]: -3% (inactive); inhibition [33]: 9% (inactive)
